± gives the uncertainty stated by the source.
Test: xn = mol fraction of the nth substance listed

Compound: CCC(O)CO (configuration not stated) + CN1CCCC1=O
- viscosity (298.15 K, 101.33 kPa, x2 = 0.0654): 38.07 ± 0.82 mPa·s
- viscosity (298.15 K, 101.33 kPa, x2 = 0.1029): 31.55 ± 0.66 mPa·s
- viscosity (298.15 K, 101.33 kPa, x2 = 0.2083): 19.25 ± 0.44 mPa·s
- viscosity (298.15 K, 101.33 kPa, x2 = 0.3075): 12.65 ± 0.31 mPa·s
- viscosity (298.15 K, 101.33 kPa, x2 = 0.3987): 8.95 ± 0.23 mPa·s
- viscosity (298.15 K, 101.33 kPa, x2 = 0.4992): 6.384 ± 0.17 mPa·s
- viscosity (298.15 K, 101.33 kPa, x2 = 0.5997): 4.714 ± 0.11 mPa·s
- viscosity (298.15 K, 101.33 kPa, x2 = 0.6958): 3.61 ± 0.082 mPa·s
- viscosity (298.15 K, 101.33 kPa, x2 = 0.8118): 2.663 ± 0.058 mPa·s
- viscosity (298.15 K, 101.33 kPa, x2 = 0.9111): 2.083 ± 0.044 mPa·s
- viscosity (298.15 K, 101.33 kPa, x2 = 0.9632): 1.837 ± 0.039 mPa·s
- viscosity (308.15 K, 101 kPa, x1 = 0.0282): 1.835 ± 0.014 mPa·s
- viscosity (308.15 K, 101 kPa, x1 = 0.0564): 2.019 ± 0.016 mPa·s
- viscosity (308.15 K, 101 kPa, x1 = 0.1026): 2.039 ± 0.016 mPa·s
- viscosity (308.15 K, 101 kPa, x1 = 0.1884): 2.067 ± 0.017 mPa·s
- viscosity (308.15 K, 101 kPa, x1 = 0.3027): 3.253 ± 0.028 mPa·s
- viscosity (308.15 K, 101 kPa, x1 = 0.4056): 3.955 ± 0.036 mPa·s
- viscosity (308.15 K, 101 kPa, x1 = 0.4941): 4.933 ± 0.046 mPa·s
- viscosity (308.15 K, 101 kPa, x1 = 0.6024): 6.647 ± 0.064 mPa·s
- viscosity (308.15 K, 101 kPa, x1 = 0.6843): 8.612 ± 0.085 mPa·s
- viscosity (308.15 K, 101 kPa, x1 = 0.7939): 12.61 ± 0.13 mPa·s
- viscosity (308.15 K, 101 kPa, x1 = 0.888): 17.95 ± 0.19 mPa·s
- viscosity (308.15 K, 101 kPa, x1 = 0.9396): 22.95 ± 0.25 mPa·s
- viscosity (308.15 K, 101 kPa, x1 = 0.9764): 27.1 ± 0.3 mPa·s
- viscosity (308.15 K, 101.33 kPa, x2 = 0.05493): 22.04 ± 0.46 mPa·s
- viscosity (308.15 K, 101.33 kPa, x2 = 0.1102): 17.39 ± 0.37 mPa·s
- viscosity (308.15 K, 101.33 kPa, x2 = 0.1762): 13.32 ± 0.29 mPa·s
- viscosity (308.15 K, 101.33 kPa, x2 = 0.2999): 8.57 ± 0.2 mPa·s
- viscosity (308.15 K, 101.33 kPa, x2 = 0.3972): 6.231 ± 0.15 mPa·s
- viscosity (308.15 K, 101.33 kPa, x2 = 0.4977): 4.671 ± 0.12 mPa·s
- viscosity (308.15 K, 101.33 kPa, x2 = 0.6026): 3.551 ± 0.083 mPa·s
- viscosity (308.15 K, 101.33 kPa, x2 = 0.6974): 2.829 ± 0.063 mPa·s
- viscosity (308.15 K, 101.33 kPa, x2 = 0.8019): 2.225 ± 0.048 mPa·s
- viscosity (308.15 K, 101.33 kPa, x2 = 0.9106): 1.745 ± 0.037 mPa·s
- viscosity (308.15 K, 101.33 kPa, x2 = 0.9521): 1.595 ± 0.034 mPa·s
- viscosity (318.15 K, 101.33 kPa, x2 = 0.05598): 13.51 ± 0.28 mPa·s
- viscosity (318.15 K, 101.33 kPa, x2 = 0.1062): 11.16 ± 0.23 mPa·s
- viscosity (318.15 K, 101.33 kPa, x2 = 0.2044): 7.948 ± 0.17 mPa·s
- viscosity (318.15 K, 101.33 kPa, x2 = 0.2997): 5.996 ± 0.14 mPa·s
- viscosity (318.15 K, 101.33 kPa, x2 = 0.4011): 4.469 ± 0.11 mPa·s
- viscosity (318.15 K, 101.33 kPa, x2 = 0.4992): 3.505 ± 0.085 mPa·s
- viscosity (318.15 K, 101.33 kPa, x2 = 0.6003): 2.789 ± 0.064 mPa·s
- viscosity (318.15 K, 101.33 kPa, x2 = 0.702): 2.252 ± 0.05 mPa·s
- viscosity (318.15 K, 101.33 kPa, x2 = 0.8041): 1.83 ± 0.039 mPa·s
- viscosity (318.15 K, 101.33 kPa, x2 = 0.9081): 1.49 ± 0.032 mPa·s
- viscosity (318.15 K, 101.33 kPa, x2 = 0.951): 1.373 ± 0.029 mPa·s

Compound: Nc1ccccc1 + CCCO
- viscosity (294.15 K, 101.33 kPa, x1 = 0.1006): 2.097 ± 0.033 mPa·s
- viscosity (294.15 K, 101.33 kPa, x1 = 0.1991): 2.123 ± 0.034 mPa·s
- viscosity (294.15 K, 101.33 kPa, x1 = 0.2994): 2.219 ± 0.035 mPa·s
- viscosity (294.15 K, 101.33 kPa, x1 = 0.3992): 2.336 ± 0.037 mPa·s
- viscosity (294.15 K, 101.33 kPa, x1 = 0.5007): 2.499 ± 0.04 mPa·s
- viscosity (294.15 K, 101.33 kPa, x1 = 0.6011): 2.689 ± 0.043 mPa·s
- viscosity (294.15 K, 101.33 kPa, x1 = 0.7011): 2.963 ± 0.047 mPa·s
- viscosity (294.15 K, 101.33 kPa, x1 = 0.8002): 3.289 ± 0.053 mPa·s
- viscosity (294.15 K, 101.33 kPa, x1 = 0.8983): 3.671 ± 0.059 mPa·s
- viscosity (298.15 K, 101.33 kPa, x1 = 0.1006): 1.902 ± 0.03 mPa·s
- viscosity (298.15 K, 101.33 kPa, x1 = 0.1991): 1.93 ± 0.031 mPa·s
- viscosity (298.15 K, 101.33 kPa, x1 = 0.2994): 1.993 ± 0.032 mPa·s
- viscosity (298.15 K, 101.33 kPa, x1 = 0.3992): 2.098 ± 0.034 mPa·s
- viscosity (298.15 K, 101.33 kPa, x1 = 0.5007): 2.234 ± 0.036 mPa·s
- viscosity (298.15 K, 101.33 kPa, x1 = 0.6011): 2.398 ± 0.039 mPa·s
- viscosity (298.15 K, 101.33 kPa, x1 = 0.7011): 2.641 ± 0.043 mPa·s
- viscosity (298.15 K, 101.33 kPa, x1 = 0.8002): 2.925 ± 0.047 mPa·s
- viscosity (298.15 K, 101.33 kPa, x1 = 0.8983): 3.245 ± 0.052 mPa·s
- viscosity (303.15 K, 100 kPa, x1 = 0.091): 1.673 ± 0.019 mPa·s
- viscosity (303.15 K, 100 kPa, x1 = 0.1839): 1.635 ± 0.019 mPa·s
- viscosity (303.15 K, 100 kPa, x1 = 0.2978): 1.609 ± 0.019 mPa·s
- viscosity (303.15 K, 100 kPa, x1 = 0.3949): 1.626 ± 0.019 mPa·s
- viscosity (303.15 K, 100 kPa, x1 = 0.4741): 1.673 ± 0.019 mPa·s
- viscosity (303.15 K, 100 kPa, x1 = 0.5952): 1.819 ± 0.021 mPa·s
- viscosity (303.15 K, 100 kPa, x1 = 0.7405): 2.129 ± 0.025 mPa·s
- viscosity (303.15 K, 100 kPa, x1 = 0.8903): 2.582 ± 0.03 mPa·s
- viscosity (303.15 K, 101.33 kPa, x1 = 0.1006): 1.685 ± 0.027 mPa·s
- viscosity (303.15 K, 101.33 kPa, x1 = 0.1991): 1.703 ± 0.027 mPa·s
- viscosity (303.15 K, 101.33 kPa, x1 = 0.2994): 1.753 ± 0.028 mPa·s
- viscosity (303.15 K, 101.33 kPa, x1 = 0.3992): 1.846 ± 0.03 mPa·s
- viscosity (303.15 K, 101.33 kPa, x1 = 0.5007): 1.952 ± 0.032 mPa·s
- viscosity (303.15 K, 101.33 kPa, x1 = 0.6011): 2.092 ± 0.034 mPa·s
- viscosity (303.15 K, 101.33 kPa, x1 = 0.7011): 2.304 ± 0.037 mPa·s
- viscosity (303.15 K, 101.33 kPa, x1 = 0.8002): 2.575 ± 0.042 mPa·s
- viscosity (303.15 K, 101.33 kPa, x1 = 0.8983): 2.81 ± 0.046 mPa·s
- viscosity (308.15 K, 101.33 kPa, x1 = 0.1006): 1.501 ± 0.024 mPa·s
- viscosity (308.15 K, 101.33 kPa, x1 = 0.1991): 1.516 ± 0.025 mPa·s
- viscosity (308.15 K, 101.33 kPa, x1 = 0.2994): 1.56 ± 0.025 mPa·s
- viscosity (308.15 K, 101.33 kPa, x1 = 0.3992): 1.633 ± 0.027 mPa·s
- viscosity (308.15 K, 101.33 kPa, x1 = 0.5007): 1.727 ± 0.028 mPa·s
- viscosity (308.15 K, 101.33 kPa, x1 = 0.6011): 1.842 ± 0.03 mPa·s
- viscosity (308.15 K, 101.33 kPa, x1 = 0.7011): 2 ± 0.033 mPa·s
- viscosity (308.15 K, 101.33 kPa, x1 = 0.8002): 2.241 ± 0.037 mPa·s
- viscosity (308.15 K, 101.33 kPa, x1 = 0.8983): 2.455 ± 0.04 mPa·s
- viscosity (313.15 K, 100 kPa, x1 = 0.091): 1.319 ± 0.015 mPa·s
- viscosity (313.15 K, 100 kPa, x1 = 0.1839): 1.275 ± 0.015 mPa·s
- viscosity (313.15 K, 100 kPa, x1 = 0.2978): 1.255 ± 0.015 mPa·s
- viscosity (313.15 K, 100 kPa, x1 = 0.3949): 1.271 ± 0.015 mPa·s
- viscosity (313.15 K, 100 kPa, x1 = 0.4741): 1.31 ± 0.015 mPa·s
- viscosity (313.15 K, 100 kPa, x1 = 0.5952): 1.399 ± 0.016 mPa·s
- viscosity (313.15 K, 100 kPa, x1 = 0.7405): 1.602 ± 0.019 mPa·s
- viscosity (313.15 K, 100 kPa, x1 = 0.8903): 1.958 ± 0.023 mPa·s
- viscosity (313.15 K, 101.33 kPa, x1 = 0.1006): 1.341 ± 0.022 mPa·s
- viscosity (313.15 K, 101.33 kPa, x1 = 0.1991): 1.357 ± 0.022 mPa·s
- viscosity (313.15 K, 101.33 kPa, x1 = 0.2994): 1.394 ± 0.023 mPa·s
- viscosity (313.15 K, 101.33 kPa, x1 = 0.3992): 1.446 ± 0.024 mPa·s
- viscosity (313.15 K, 101.33 kPa, x1 = 0.5007): 1.526 ± 0.025 mPa·s
- viscosity (313.15 K, 101.33 kPa, x1 = 0.6011): 1.638 ± 0.027 mPa·s
- viscosity (313.15 K, 101.33 kPa, x1 = 0.7011): 1.791 ± 0.029 mPa·s
- viscosity (313.15 K, 101.33 kPa, x1 = 0.8002): 1.981 ± 0.033 mPa·s
- viscosity (313.15 K, 101.33 kPa, x1 = 0.8983): 2.16 ± 0.036 mPa·s

From the CheMixHub viscosity set
